In one data set the target is Human HDAC1 (Homo sapiens (Human), UniProt Q13547). The data set can be described thus: HDAC enzymatic assay, HDAC1. The conditions noted are these: 10-dose IC50 mode with a 3-fold serial dilution; read-out: HDAC subtypes IC50 HDAC1. It counts as biochemical. Here is the method: (§1) The IC50 values for aforementioned compounds against HDACs were determined. HDAC 1 to 11 can be assayed by using acetylated AMC-labeled peptide substrate.
(§2) Human HDAC1 GenBank Accession No. NM_004964): Full length with C-terminal GST tag, MW=79.9 kDa, Human HDAC2 (GenBank Accession No. Q92769): Full length with C-terminal His tag, MW=60 kDa. Human HDAC3/NcoR2 (GenBank Accession No. […] for HDAC3, GenBank Accession No. NM_006312 for NcoR2): Complex of human HDAC3, full length with C-terminal His tag, MW=49.7 kDa, and human NCOR2, N-terminal GST tag, MW=39 kDa. Human HDAC6 (GenBank Accession No. BC069243): Full length with N-terminal GST tag, MW=159 kDa. Human HDAC8 (GenBank Accession No. NM018486): Full length, MW=42 kDa, expressed in an E. coli expression system.
(§3) Human HDAC1, Human HDAC2, Human HDAC3/NcoR2, Human HDAC6, Human HDAC10, and Human HDAC11 were all expressed by baculovirus expression system in Sf9 cells.
(§4) 50 μM HDAC substrate. 1% DMSO final. Incubation for 2 hours at 30° C.

The target of another data set is Human HDAC8 (Homo sapiens (Human), UniProt Q9BY41). Briefly: HDAC enzymatic assay, HDAC8. In kind it is biochemical. The conditions noted are these: 10-dose IC50 mode with a 3-fold serial dilution; read-out: HDAC subtypes IC50 HDAC8. Here is the method: as §1, §2, §4
A further data set addresses Human HDAC6 (Homo sapiens (Human), UniProt Q9UBN7). The data set can be described thus: HDAC enzymatic assay, HDAC6. In kind it is biochemical. The settings on record: 10-dose IC50 mode with a 3-fold serial dilution; read-out: HDAC subtypes IC50 HDAC6. Here is the method:
as §1, §2, §3, §4

A further data set has as its target Human HDAC11 (Homo sapiens (Human), UniProt Q96DB2). The data set can be described thus: HDAC enzymatic assay, HDAC11. It counts as biochemical. The settings on record: 10-dose IC50 mode with a 3-fold serial dilution; read-out: HDAC subtypes IC50 HDAC11. On the procedure: as §1, §2, §3, §4
The test system of a further data set is U87MG. The settings on record: human, 72 h.
Another data set deals with LNCap. The settings on record: human, 72 h.
The next data set deals with A549. The conditions noted are these: human, 72 h.
A further data set concerns PANC1. The conditions noted are these: human, 72 h.
The test system of the next data set is HepG2. The conditions noted are these: human, 72 h.
The nature of data set [1]: in vitro. The conditions noted are these: human.
Protocol: (§5) Cells were seeded in 96-well plates at a density of 5×10^3 cells per well and allowed to attach for 24 h before compound treatment. […] At end of the treatment period 72 h, 20 μl (5 mg/mL) 3-(4,5-dimethylthiazol-2-yl)-2,5-diphenyl-tetrazolium bromide (MTT) reagent was added each well. After 4 h incubation at 37° C., the supernatant was aspirated and the formazan crystals were dissolved in 100 μl of DMSO at 37° C. for 10 min with gentle agitation. The absorbance was measured at 570 nm using the Molecular Devices Microplate Reader. […] IC50 values were calculated from the relative viability values and concentrations by regression analysis.
Data set [2] is described as follows: in vitro. The settings on record: monkey.
Protocol: as §5

Sequence of Human HDAC6 (Q9UBN7 whole entry): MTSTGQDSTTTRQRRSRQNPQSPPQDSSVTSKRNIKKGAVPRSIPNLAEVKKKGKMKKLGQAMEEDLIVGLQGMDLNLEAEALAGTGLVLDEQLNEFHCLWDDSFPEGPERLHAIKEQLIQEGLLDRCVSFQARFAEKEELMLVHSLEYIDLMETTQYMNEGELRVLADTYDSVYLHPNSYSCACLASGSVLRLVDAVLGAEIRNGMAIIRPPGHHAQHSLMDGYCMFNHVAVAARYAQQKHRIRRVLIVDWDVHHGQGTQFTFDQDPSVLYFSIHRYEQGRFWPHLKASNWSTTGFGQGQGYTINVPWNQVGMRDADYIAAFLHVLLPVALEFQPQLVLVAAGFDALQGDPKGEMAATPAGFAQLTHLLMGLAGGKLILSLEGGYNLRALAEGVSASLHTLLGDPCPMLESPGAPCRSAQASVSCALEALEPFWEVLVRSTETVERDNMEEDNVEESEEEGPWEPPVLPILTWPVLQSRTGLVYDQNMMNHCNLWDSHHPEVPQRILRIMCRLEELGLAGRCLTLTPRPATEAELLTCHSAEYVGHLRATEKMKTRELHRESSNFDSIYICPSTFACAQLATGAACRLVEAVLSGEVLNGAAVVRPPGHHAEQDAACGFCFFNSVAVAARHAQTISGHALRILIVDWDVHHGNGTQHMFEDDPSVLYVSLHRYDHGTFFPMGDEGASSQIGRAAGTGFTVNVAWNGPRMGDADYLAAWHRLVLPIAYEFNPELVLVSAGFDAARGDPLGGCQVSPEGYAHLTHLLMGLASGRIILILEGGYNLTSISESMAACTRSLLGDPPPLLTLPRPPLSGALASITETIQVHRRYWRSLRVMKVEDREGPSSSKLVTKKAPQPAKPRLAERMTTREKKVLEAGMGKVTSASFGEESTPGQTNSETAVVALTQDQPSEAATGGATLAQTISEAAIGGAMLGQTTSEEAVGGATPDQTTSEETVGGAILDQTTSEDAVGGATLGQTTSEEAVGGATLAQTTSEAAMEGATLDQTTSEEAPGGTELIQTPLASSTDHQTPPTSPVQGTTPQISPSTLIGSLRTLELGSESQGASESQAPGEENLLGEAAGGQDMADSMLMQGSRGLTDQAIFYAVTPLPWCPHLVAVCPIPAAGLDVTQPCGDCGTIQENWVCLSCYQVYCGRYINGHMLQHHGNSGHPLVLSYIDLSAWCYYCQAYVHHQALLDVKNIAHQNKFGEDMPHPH
Sequence of Human HDAC8 (Q9BY41 whole entry): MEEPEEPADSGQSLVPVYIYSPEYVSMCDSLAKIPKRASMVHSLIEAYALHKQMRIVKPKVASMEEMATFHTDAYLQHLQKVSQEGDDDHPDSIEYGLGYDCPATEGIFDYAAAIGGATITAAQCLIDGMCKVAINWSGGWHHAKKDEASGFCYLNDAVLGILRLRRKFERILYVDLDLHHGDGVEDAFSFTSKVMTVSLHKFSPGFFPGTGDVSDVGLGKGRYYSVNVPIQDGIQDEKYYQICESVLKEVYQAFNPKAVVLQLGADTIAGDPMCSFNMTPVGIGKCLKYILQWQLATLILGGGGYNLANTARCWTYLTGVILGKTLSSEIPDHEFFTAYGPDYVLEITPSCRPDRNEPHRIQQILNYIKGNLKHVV
Sequence of Human HDAC1 (Q13547 whole entry): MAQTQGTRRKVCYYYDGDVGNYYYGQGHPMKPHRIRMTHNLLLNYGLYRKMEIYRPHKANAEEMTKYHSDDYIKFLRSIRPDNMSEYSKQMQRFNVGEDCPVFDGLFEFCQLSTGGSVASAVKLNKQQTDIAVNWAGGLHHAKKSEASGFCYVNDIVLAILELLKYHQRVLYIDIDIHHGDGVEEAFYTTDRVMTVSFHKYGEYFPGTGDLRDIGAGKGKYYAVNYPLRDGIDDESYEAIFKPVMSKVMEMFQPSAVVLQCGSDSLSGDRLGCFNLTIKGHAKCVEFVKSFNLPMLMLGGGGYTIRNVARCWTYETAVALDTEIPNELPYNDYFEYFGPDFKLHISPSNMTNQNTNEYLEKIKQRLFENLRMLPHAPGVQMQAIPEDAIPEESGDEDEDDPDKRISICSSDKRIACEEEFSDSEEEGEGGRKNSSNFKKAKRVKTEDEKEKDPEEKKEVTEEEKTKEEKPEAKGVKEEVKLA
Sequence of Human HDAC11 (Q96DB2 whole entry): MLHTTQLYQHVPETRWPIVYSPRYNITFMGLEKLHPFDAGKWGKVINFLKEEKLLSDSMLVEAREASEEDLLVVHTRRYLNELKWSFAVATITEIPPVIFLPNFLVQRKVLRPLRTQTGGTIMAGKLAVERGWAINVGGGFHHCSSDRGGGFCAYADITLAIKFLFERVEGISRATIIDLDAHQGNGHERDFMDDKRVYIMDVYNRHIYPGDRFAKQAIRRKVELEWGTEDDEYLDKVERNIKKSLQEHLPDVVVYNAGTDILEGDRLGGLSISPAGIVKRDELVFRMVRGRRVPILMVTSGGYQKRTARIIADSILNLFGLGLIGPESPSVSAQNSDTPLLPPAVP
Protocol for A549: as §5
Protocol for HepG2: as §5
Protocol for LNCap: as §5
Protocol for PANC1: as §5
Protocol for U87MG: as §5

As a reminder, the IC50 is the point on the concentration scale where inhibition reaches its midpoint. As to `O=C(NO)c1ccc(Cn2c(=O)n(CCc3ccccc3)c(=O)c3ccc(F)cc32)cc1` [Compound 1, 4-((7-fluoro-2,4-dioxo-3-phenethyl-3,4-dihydroquinazolin-1(2H)-yl)methyl)-N-hydroxybenzamide], the IC50 was 9.41 µM on Human HDAC1, 0.095 µM at Human HDAC8, 0.008 µM on Human HDAC6 and 15.4 µM on Human HDAC11.

For `COc1ccc2c(=O)n(CCc3ccccc3)c(=O)n(Cc3ccc(C(=O)NO)cc3)c2c1` [Compound 2, N-hydroxy-4-((7-methoxy-2,4-dioxo-3-phenethyl-3,4-dihydroquinazol-1(2H)-yl)methyl)benzamide], the IC50 on Human HDAC1 was 12 µM; at Human HDAC8 it was 0.731 µM; on Human HDAC6, 0.051 µM; with U87MG, above 10 µM; with LNCap it was above 10 µM; in the data set with A549, above 10 µM. Further, the half-maximal inhibitory concentration (IC50) in the data set on PANC1 and in the data set on HepG2 was above 10 µM throughout. Besides, the concentration for half-maximal inhibition (IC50) at 72 h in the data set “in vitro [1]” is above 200 µM; in “in vitro [2]”, above 10 µM.

Consider `O=C(NO)c1cccc(Cn2c(=O)n(CCc3ccccc3)c(=O)c3ccccc32)c1` [Compound 6, 3-((2,4-dioxo-3-phenethyl-3,4-dihydroquinazolin-1(2H)-yl)methyl)-N-hydroxybenzamide], for which the IC50 at Human HDAC1 is above 10 µM; at Human HDAC8 it was 0.653 µM; on Human HDAC6 it was 4.3 µM; on Human HDAC11 it was above 10 µM; with U87MG it was 3.75 ± 0.13 µM; with LNCap, 3.4 ± 0.21 µM. Also, the IC50 in the data set with A549 is 4.03 ± 0.12 µM; in the data set on PANC1 it was 5.12 ± 0.32 µM; in the data set on HepG2, 3.41 ± 0.34 µM. Also, the IC50 at 72 h in the data set “in vitro [1]” came out at 69.23 ± 0.27 µM; in the data set “in vitro [2]”, 78.42 ± 0.22 µM.

Regarding `N#Cc1ccc2c(=O)n(CCc3ccccc3)c(=O)n(Cc3cccc(C(=O)NO)c3)c2c1` [Compound 7, 3-((7-cyano-2,4-dioxo-3-phenethyl-3,4-dihydroquinazolin-1(2H)-yl)methyl)-N-hydroxybenzamide], the results for the IC50 on Human HDAC1, on Human HDAC8 and on Human HDAC6 were above 10 µM, 0.235 µM and 4.45 µM, respectively.

For `Cn1c(=O)c2ccc(Cl)cc2n(Cc2ccc(C(=O)NO)cc2)c1=O` [Compound 10, 4-((7-chloro-3-methyl-2,4-dioxo-3,4-dihydroquinazolin-1(2H)-yl)methyl)-N-hydroxybenzamide], the 50% inhibitory concentration (IC50) on Human HDAC1 was determined as 2.72 µM; at Human HDAC8, 0.523 µM; on Human HDAC6 it was 0.004 µM; with U87MG, 7.63 ± 0.12 µM; in the data set on LNCap, 4.72 ± 0.16 µM; in the data set with A549 it was 8.15 ± 0.17 µM. Further, the IC50 with PANC1 was 9.04 ± 0.21 µM; with HepG2, 6.65 ± 0.22 µM. Besides, the IC50 at 72 h was 85.33 ± 0.34 µM in “in vitro [1]” and 93.24 ± 0.37 µM in the data set “in vitro [2]”.

Take `O=C(NO)c1ccc(Cn2c(=O)n(Cc3ccccc3)c(=O)c3ccccc32)cc1` [Compound 11, 4-((3-benzyl-2,4-dioxo-3,4-dihydroquinazolin-1(2H)-yl)methyl)-N-hydroxybenzamide]: the IC50 at Human HDAC1 came out at 15.8 µM; at Human HDAC8, 0.486 µM; at Human HDAC6, 0.024 µM; on Human HDAC11, 37.5 µM; in the data set with U87MG, 4.08 ± 0.11 µM; with LNCap, 2.93 ± 0.62 µM. The IC50 with A549 was 4.78 ± 0.11 µM; in the data set on PANC1, 6.13 ± 0.17 µM; in the data set on HepG2 it was 4.39 ± 0.07 µM. Moreover, the figures for the IC50 at 72 h in the data set “in vitro [1]” and in the data set “in vitro [2]” were 89.18 ± 0.62 µM and 97.25 ± 0.31 µM, respectively.

Turning to `O=C(NO)c1ccc(Cn2c(=O)n(CCc3ccccc3)c(=O)c3cccnc32)cc1` [Compound 12, 4-((2,4-dioxo-3-phenethyl-3,4-dihydropyrido[2,3-d]pyrimidin-1(2H)-yl)methyl)-N-hydroxybenzamide], the IC50 at Human HDAC1 came out at 11.2 µM; on Human HDAC8, 1.07 µM; at Human HDAC6, 0.028 µM; on Human HDAC11, 25.1 µM; with U87MG, 9.12 ± 0.23 µM; in the data set on LNCap it was 7.53 ± 0.23 µM. In addition, the IC50 with A549, with PANC1 and with HepG2 was above 10 µM throughout. In addition, the values for the IC50 at 72 h in “in vitro [1]” and in the data set “in vitro [2]” were 159.1 ± 0.44 µM and 166.4 ± 0.39 µM, respectively.

As for `O=C(NO)c1ccc(Cn2c(=O)n(CCc3ccccc3O)c(=O)c3ccccc32)cc1` [Compound 18, N-hydroxy-4-((3-(2-hydroxyphenethyl)-2,4-dioxo-3,4-dihydroquinazolin-1(2H)-yl)methyl)benzamide], the half-inhibitory concentration (IC50) at Human HDAC1 was found to be 8.83 µM; on Human HDAC8, 0.4 µM; at Human HDAC6, 0.006 µM; on Human HDAC11, 16.7 µM.

Regarding `O=C(NO)C(F)(F)c1ccc(Cn2c(=O)n(CCc3ccccc3)c(=O)c3ccccc32)cc1` [Compound 20, 2-(4-((2,4-dioxo-3-phenethyl-3,4-dihydroquinazolin-1(2H)-yl)methyl)phenyl)-2,2-difluoro-N-hydroxyacetamide], the IC50 in the data set on U87MG was 9.67 ± 0.66 µM; in the data set on LNCap, 9.97 ± 0.08 µM; in the data set on A549, above 10 µM; with PANC1 it was above 10 µM; with HepG2, 7.43 ± 0.27 µM. Besides, the IC50 at 72 h in the data set “in vitro [1]” and in “in vitro [2]” was above 200 µM in each case.

Take `O=C(NO)c1ccc(Cn2c(=O)n(CCc3ccccc3)c(=O)c3ccsc32)cc1` [Compound 21, 4-((2,4-dioxo-3-phenethyl-3,4-dihydrothieno[2,3-d]pyrimidin-1(2H)-yl)methyl)-N-hydroxybenzamide]: the IC50 on Human HDAC1 worked out at 6.66 µM; on Human HDAC8, 0.169 µM; on Human HDAC6 it was 0.015 µM; on Human HDAC11 it was 5.69 µM; in the data set with U87MG, 2.93 ± 0.13 µM; in the data set with LNCap, 0.98 ± 0.06 µM. The IC50 was 3.22 ± 0.31 µM with A549, 4.72 ± 0.37 µM in the data set with PANC1 and 3.55 ± 0.14 µM in the data set on HepG2. Besides, the IC50 at 72 h in “in vitro [1]” stood at 63.11 ± 0.17 µM; in the data set “in vitro [2]”, 81.51 ± 0.18 µM.

Take `O=C(NO)c1ccc(Cn2c(=O)n(CCc3cccs3)c(=O)c3ccccc32)cc1` [Compound 24, 4-((2,4-dioxo-3-(2-(thiophen-2-yl)ethyl)-3,4-dihydroquinazolin-1(2H)-yl)methyl)-N-hydroxybenzamide]: the concentration for half-maximal inhibition (IC50) on Human HDAC1 is 10.7 µM; at Human HDAC8, 0.287 µM; on Human HDAC6 it was 0.011 µM; on Human HDAC11, 10 µM; in the data set on U87MG, 4.18 ± 0.22 µM; with LNCap, 3.83 ± 0.17 µM. In addition, the results for the IC50 in the data set on A549, in the data set with PANC1 and in the data set on HepG2 were 4.69 ± 0.17 µM, above 10 µM and 4.11 ± 0.27 µM, respectively. The IC50 at 72 h was found to be 60.41 ± 0.22 µM in “in vitro [1]” and 76.31 ± 0.32 µM in the data set “in vitro [2]”.

For `O=C(NO)c1cc(Cn2c(=O)n(CCc3ccccc3)c(=O)c3ccccc32)cs1` [Compound 25, 4-((2,4-dioxo-3-phenethyl-3,4-dihydroquinazolin-1(2H)-yl)methyl)-N-hydroxythiophene-2-carboxamide], the half-inhibitory concentration (IC50) at Human HDAC1 was above 30 µM; on Human HDAC8 it was 1.19 µM; on Human HDAC6, 1.19 µM; on Human HDAC11, 129 µM; with U87MG it was 5.23 ± 0.21 µM; in the data set on LNCap, 5.77 ± 0.46 µM. Moreover, the IC50 in the data set on A549 came to 6.25 ± 0.33 µM; with PANC1 it was 8.13 ± 0.28 µM; in the data set on HepG2, 5.31 ± 0.37 µM. Further, the half-maximal inhibitory concentration (IC50) at 72 h in the data set “in vitro [1]” worked out at 105.1 ± 0.25 µM; in “in vitro [2]”, 106.3 ± 0.29 µM.

Take `O=C(NO)c1ccc(Cn2c(=O)n(CCc3ccccc3)c(=O)c3ccc(C4CC4)cc32)cc1` [Compound 27, 4-((7-cyclopropyl-2,4-dioxo-3-phenethyl-3,4-dihydroquinazolin-1(2H)-yl)methyl)-N-hydroxybenzamide]: the half-maximal inhibitory concentration (IC50) was found to be 14.5 µM at Human HDAC1, 3.06 µM at Human HDAC8, 0.168 µM on Human HDAC6 and 10.5 µM on Human HDAC11.

In the case of `CNc1ccc(CCn2c(=O)c3ccccc3n(Cc3ccc(C(=O)NO)cc3)c2=O)cc1` [Compound 29, N-hydroxy-4-((3-(4-(methylamino)phenethyl)-2,4-dioxo-3,4-dihydroquinazolin-1(2H)-yl)methyl)benzamide], the concentration for half-maximal inhibition (IC50) came to 4.38 µM at Human HDAC1, 1.42 µM on Human HDAC8, 0.025 µM at Human HDAC6 and 3.8 µM at Human HDAC11.

In the case of `O=C(NO)c1ccc(Cn2c(=O)n(CCc3ccc(N4CCOCC4)cc3)c(=O)c3ccccc32)cc1` [Compound 30, N-hydroxy-4-((3-(4-morpholinophenethyl)-2,4-dioxo-3,4-dihydroquinazolin-1(2H)-yl)methyl)benzamide], the half-inhibitory concentration (IC50) turned out to be 9.79 µM on Human HDAC1, 0.979 µM at Human HDAC8, 0.014 µM on Human HDAC6 and 22.8 µM at Human HDAC11.
